Source: ChEMBL document CHEMBL3351718 (Bioorg Med Chem Lett, 2014)

How the values were obtained:
[1] = target: Hepatocyte growth factor receptor (Homo sapiens, UniProt P08581); assay: Inhibition of recombinant MET kinase domain (unknown origin)
[2] = target: Vascular endothelial growth factor receptor 2 (Homo sapiens, UniProt P35968); assay: Inhibition of recombinant VEGFR2 kinase domain (unknown origin)
[3] = target: Mast/stem cell growth factor receptor Kit (Homo sapiens, UniProt P10721); assay: Inhibition of c-Kit (unknown origin)
Mast/stem cell growth factor receptor Kit, sequence (P10721 whole entry): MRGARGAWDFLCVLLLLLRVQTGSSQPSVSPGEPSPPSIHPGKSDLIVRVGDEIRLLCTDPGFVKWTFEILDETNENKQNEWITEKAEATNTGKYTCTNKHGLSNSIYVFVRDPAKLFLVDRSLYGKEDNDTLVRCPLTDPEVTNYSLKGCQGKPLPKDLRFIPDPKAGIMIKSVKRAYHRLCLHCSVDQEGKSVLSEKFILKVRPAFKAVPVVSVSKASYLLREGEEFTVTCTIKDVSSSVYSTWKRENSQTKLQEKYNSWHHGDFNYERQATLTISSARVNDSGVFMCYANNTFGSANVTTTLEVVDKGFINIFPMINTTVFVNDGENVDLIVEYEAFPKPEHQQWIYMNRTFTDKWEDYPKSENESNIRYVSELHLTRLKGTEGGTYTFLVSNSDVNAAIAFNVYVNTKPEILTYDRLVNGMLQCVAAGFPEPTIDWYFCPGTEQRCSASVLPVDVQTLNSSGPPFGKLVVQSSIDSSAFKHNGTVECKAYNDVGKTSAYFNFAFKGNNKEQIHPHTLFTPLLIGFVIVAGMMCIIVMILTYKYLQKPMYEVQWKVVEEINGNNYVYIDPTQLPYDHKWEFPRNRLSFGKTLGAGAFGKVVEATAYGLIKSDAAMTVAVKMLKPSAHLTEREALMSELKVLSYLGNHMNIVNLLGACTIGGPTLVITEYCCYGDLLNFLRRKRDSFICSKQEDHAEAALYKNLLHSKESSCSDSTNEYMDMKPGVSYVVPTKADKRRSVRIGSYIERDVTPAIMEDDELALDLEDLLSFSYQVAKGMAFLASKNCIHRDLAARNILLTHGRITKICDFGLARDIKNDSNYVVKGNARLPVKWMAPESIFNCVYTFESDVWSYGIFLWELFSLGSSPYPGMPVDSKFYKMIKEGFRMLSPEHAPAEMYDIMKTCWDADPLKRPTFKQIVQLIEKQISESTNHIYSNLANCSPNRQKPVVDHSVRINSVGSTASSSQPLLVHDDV

[4] = target: Proto-oncogene tyrosine-protein kinase receptor Ret (Homo sapiens, UniProt P07949); assay: Inhibition of RET (unknown origin)
Proto-oncogene tyrosine-protein kinase receptor Ret, sequence (P07949 whole entry): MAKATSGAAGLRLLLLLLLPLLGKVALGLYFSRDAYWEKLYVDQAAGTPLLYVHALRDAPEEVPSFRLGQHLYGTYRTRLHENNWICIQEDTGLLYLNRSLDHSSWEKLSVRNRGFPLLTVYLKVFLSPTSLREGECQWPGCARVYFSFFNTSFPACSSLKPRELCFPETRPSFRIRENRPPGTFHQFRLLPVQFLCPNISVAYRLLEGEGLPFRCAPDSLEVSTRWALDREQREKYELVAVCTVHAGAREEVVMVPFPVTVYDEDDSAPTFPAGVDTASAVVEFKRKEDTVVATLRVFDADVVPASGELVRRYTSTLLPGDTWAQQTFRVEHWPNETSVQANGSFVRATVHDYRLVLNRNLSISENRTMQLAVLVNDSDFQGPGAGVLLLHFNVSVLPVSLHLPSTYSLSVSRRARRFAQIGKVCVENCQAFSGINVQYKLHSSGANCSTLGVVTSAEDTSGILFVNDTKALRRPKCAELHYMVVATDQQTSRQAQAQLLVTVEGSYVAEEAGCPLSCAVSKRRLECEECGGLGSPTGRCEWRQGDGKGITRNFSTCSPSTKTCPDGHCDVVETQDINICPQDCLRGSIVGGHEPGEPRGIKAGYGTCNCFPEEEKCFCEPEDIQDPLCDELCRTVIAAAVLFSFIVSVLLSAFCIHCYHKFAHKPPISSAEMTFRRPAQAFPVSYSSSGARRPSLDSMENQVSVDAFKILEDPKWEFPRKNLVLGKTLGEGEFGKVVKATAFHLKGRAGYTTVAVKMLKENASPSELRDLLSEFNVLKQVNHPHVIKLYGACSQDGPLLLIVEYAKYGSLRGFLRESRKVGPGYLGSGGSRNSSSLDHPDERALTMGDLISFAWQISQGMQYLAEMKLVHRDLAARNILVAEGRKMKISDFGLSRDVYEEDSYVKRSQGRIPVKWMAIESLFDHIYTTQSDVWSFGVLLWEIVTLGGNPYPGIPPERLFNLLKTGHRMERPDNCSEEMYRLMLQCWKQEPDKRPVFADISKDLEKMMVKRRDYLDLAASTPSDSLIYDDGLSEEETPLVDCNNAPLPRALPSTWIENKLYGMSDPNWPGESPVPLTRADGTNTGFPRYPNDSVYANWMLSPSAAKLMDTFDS

HUVEC = assay: Growth inhibition of HUVEC cells; settings: Homo sapiens
[5] = Growth inhibition of human MKN45 cells; settings: MKN-45

Hepatocyte growth factor receptor, sequence (P08581 whole entry, the tested form may be a part): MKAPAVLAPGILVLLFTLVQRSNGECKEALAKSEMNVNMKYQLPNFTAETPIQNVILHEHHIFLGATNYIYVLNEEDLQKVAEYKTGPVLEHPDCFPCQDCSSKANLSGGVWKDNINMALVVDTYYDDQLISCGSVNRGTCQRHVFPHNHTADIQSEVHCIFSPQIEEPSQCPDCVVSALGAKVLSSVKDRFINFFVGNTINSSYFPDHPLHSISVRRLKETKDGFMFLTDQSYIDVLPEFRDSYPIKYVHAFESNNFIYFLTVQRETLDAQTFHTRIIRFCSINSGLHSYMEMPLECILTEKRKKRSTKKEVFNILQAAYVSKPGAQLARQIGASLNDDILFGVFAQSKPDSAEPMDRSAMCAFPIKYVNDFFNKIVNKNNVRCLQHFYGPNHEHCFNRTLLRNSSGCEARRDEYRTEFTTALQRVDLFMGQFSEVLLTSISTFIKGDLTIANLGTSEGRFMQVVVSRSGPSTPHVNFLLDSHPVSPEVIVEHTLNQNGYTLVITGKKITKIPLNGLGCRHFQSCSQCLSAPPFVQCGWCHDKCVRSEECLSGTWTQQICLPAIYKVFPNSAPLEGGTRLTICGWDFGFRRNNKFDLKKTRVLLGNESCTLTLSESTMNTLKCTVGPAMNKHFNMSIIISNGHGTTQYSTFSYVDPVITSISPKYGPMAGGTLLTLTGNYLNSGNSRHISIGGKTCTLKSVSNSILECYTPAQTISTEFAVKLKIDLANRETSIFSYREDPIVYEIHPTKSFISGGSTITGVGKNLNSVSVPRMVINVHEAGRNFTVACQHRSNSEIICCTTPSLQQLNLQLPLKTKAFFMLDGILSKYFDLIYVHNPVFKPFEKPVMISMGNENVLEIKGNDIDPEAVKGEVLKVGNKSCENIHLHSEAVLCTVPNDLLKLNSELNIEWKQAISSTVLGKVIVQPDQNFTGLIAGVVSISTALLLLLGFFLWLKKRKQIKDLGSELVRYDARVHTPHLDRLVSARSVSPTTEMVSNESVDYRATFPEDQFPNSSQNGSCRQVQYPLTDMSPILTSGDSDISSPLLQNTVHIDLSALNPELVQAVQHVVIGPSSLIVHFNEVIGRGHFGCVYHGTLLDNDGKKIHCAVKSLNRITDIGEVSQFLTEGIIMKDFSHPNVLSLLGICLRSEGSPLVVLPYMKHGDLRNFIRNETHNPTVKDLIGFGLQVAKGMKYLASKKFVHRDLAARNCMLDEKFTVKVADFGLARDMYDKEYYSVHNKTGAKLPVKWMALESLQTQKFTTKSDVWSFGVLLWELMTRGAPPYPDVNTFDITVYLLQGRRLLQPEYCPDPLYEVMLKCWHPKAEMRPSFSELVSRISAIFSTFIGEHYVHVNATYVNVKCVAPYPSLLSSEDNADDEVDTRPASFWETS
Vascular endothelial growth factor receptor 2, sequence (P35968 whole entry, the tested form may be a part): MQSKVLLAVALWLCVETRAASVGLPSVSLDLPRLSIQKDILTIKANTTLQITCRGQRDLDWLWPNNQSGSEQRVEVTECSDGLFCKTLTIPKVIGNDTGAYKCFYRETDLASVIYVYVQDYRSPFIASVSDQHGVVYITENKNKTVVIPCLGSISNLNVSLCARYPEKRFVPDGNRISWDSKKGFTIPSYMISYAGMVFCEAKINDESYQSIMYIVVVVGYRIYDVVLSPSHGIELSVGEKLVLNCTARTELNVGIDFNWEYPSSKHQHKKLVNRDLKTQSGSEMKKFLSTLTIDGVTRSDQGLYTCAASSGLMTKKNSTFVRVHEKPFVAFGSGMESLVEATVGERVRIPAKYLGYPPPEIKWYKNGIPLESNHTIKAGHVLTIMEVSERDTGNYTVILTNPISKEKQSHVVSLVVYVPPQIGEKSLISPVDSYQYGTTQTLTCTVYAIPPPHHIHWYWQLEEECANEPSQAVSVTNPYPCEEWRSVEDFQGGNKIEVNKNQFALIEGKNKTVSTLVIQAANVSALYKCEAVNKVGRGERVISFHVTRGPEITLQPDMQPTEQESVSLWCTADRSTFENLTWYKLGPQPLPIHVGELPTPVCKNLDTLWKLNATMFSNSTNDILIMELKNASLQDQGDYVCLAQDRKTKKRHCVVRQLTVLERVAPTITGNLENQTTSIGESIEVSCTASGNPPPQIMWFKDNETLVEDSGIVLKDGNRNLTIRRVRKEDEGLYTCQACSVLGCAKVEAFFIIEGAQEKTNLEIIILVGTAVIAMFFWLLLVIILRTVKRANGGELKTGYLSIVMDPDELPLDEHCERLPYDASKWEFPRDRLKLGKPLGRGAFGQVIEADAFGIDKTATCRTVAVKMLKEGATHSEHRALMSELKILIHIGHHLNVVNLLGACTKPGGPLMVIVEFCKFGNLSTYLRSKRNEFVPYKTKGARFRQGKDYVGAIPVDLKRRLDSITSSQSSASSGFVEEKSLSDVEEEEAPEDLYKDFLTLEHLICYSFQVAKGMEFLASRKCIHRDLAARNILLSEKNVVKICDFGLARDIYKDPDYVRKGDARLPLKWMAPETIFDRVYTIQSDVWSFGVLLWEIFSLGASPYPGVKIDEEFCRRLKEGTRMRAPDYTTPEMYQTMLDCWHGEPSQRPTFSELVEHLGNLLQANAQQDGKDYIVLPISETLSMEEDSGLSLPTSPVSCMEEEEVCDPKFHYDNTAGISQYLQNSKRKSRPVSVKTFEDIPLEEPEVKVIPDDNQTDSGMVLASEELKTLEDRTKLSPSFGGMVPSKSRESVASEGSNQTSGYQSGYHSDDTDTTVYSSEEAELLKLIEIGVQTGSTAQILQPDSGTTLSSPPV

| SMILES | IC50 [1] | IC50 [2] | further results |
| --- | --- | --- | --- |
| Nc1nccc(Oc2ccc(-n3cccc(C(=O)NCc4ccc(F)cc4)c3=O)cc2F)c1Cl | > 25 µM |  |  |
| Nc1nccc(Oc2ccc(-n3ccc(C(=O)Nc4ccc(F)cc4)cc3=O)cc2F)c1Cl | > 25 µM |  |  |
| Nc1nccc(Oc2ccc(-n3ccc(C(=O)NCc4ccc(F)cc4)cc3=O)cc2F)c1Cl | > 25 µM |  |  |
| COc1cc(=O)n(-c2ccc(Oc3ccnc(N)c3I)c(F)c2)cc1C(=O)NCc1ccc(F)cc1 |  | > 25 µM | IC50 [3]: > 25 µM; IC50 [4]: > 25 µM; IC50 (HUVEC): 2.41 µM; IC50 [5]: > 25 µM |

Now from value to molecule, other results behind:

| IC50 [1] | IC50 [2] | SMILES | further results |
| --- | --- | --- | --- |
| > 25 µM |  | Nc1nccc(Oc2ccc(-n3cccc(C(=O)Nc4ccc(F)cc4)c3=O)cc2F)c1Cl |  |
| > 25 µM |  | Nc1nccc(Oc2ccc(-n3cc(C(=O)Nc4ccc(F)cc4)ccc3=O)cc2F)c1Cl |  |
|  | > 25 µM | Nc1nccc(Oc2ccc(-n3cc(C(=O)NCc4ccc(F)cc4)ccc3=O)cc2F)c1Cl |  |
|  | > 25 µM | COc1cc(=O)n(-c2ccc(Oc3ccnc(N)c3Cl)c(F)c2)cc1C(=O)NCc1ccc(F)cc1 | IC50 [3]: > 25 µM; IC50 [4]: > 25 µM; IC50 (HUVEC): 2.41 µM; IC50 [5]: > 25 µM |
